In article PMC5218480 (PLoS ONE, 2017):

System: MV-4-11 cells
Assay: Gene expression microarray analysis (Affymetrix PrimeView) and GSEA
Format: cell-based, human
Parameters: RFU PODN (11730768_x_at) / Fold change /veh PODN (11730768_x_at) / RFU LINC00158 (11744669_a_at) / Fold change /veh LINC00158 (11744669_a_at) / RFU DUSP10 (11751237_a_at) / Fold change /veh DUSP10 (11751237_a_at) / RFU ID3 (11757404_x_at) / Fold change /veh ID3 (11757404_x_at) / RFU PLEKHG5 (11737974_s_at) / Fold change /veh PLEKHG5 (11737974_s_at) / RFU LRRC4B (11730491_at) / Fold change /veh LRRC4B (11730491_at) / RFU GIMAP4 (11747438_a_at) / Fold change /veh GIMAP4 (11747438_a_at) / RFU KRT8 (11758183_x_at) / Fold change /veh KRT8 (11758183_x_at) / RFU CNN1 (11734310_a_at) / Fold change /veh CNN1 (11734310_a_at) / RFU VPS37D (11726825_at) / Fold change /veh VPS37D (11726825_at) / RFU C10orf10 (11716522_x_at) / Fold change /veh C10orf10 (11716522_x_at) / RFU KIR2DL2 /// KIR2DL4 /// KIR2DL5A /// KIR2DL5B /// KIR2DS1 /// KIR2DS2 /// KIR2DS3 /// KIR2DS4 /// KIR3DL3 /// KIR3DL3 /// KIR3DS1 (11738374_at) / Fold change /veh KIR2DL2 /// KIR2DL4 /// KIR2DL5A /// KIR2DL5B /// KIR2DS1 /// KIR2DS2 /// KIR2DS3 /// KIR2DS4 /// KIR3DL3 /// KIR3DL3 /// KIR3DS1 (11738374_at) / RFU C1QL1 (11718748_at) / Fold change /veh C1QL1 (11718748_at) / RFU TMPRSS4 (11747572_a_at) / Fold change /veh TMPRSS4 (11747572_a_at) / RFU HAMP (11756126_x_at) / Fold change /veh HAMP (11756126_x_at) / RFU RNFT2 (11725882_a_at) / Fold change /veh RNFT2 (11725882_a_at) / RFU NR4A2 (11747474_a_at) / Fold change /veh NR4A2 (11747474_a_at) / RFU ABCC12 (11746883_a_at) / Fold change /veh ABCC12 (11746883_a_at) / RFU TMEM136 (11760407_x_at) / Fold change /veh TMEM136 (11760407_x_at) / RFU CLDN22 /// WWC2 (11732394_at) / Fold change /veh CLDN22 /// WWC2 (11732394_at) / RFU HLA-DPB1 (11760878_x_at) / Fold change /veh HLA-DPB1 (11760878_x_at) / RFU SPINT1 (11716480_a_at) / Fold change /veh SPINT1 (11716480_a_at) / RFU GAP43 (11754022_s_at) / Fold change /veh GAP43 (11754022_s_at) / RFU A4GNT (11735810_at) / Fold change /veh A4GNT (11735810_at) / RFU PRB3 (11715151_x_at) / Fold change /veh PRB3 (11715151_x_at) / RFU TUBB4B (11761932_at) / Fold change /veh TUBB4B (11761932_at) / RFU CAPN14 (11732068_a_at) / Fold change /veh CAPN14 (11732068_a_at) / RFU TMCC2 (11721928_a_at) / Fold change /veh TMCC2 (11721928_a_at) / RFU IRGQ (11745062_a_at) / Fold change /veh IRGQ (11745062_a_at) / RFU FAM174B (11720279_a_at) / Fold change /veh FAM174B (11720279_a_at) / RFU TMPRSS4 (11748680_a_at) / Fold change /veh TMPRSS4 (11748680_a_at) / RFU FAM212B (11763350_a_at) / Fold change /veh FAM212B (11763350_a_at) / RFU PLEKHG5 (11743358_a_at) / Fold change /veh PLEKHG5 (11743358_a_at) / RFU ZSCAN30 (11745921_a_at) / Fold change /veh ZSCAN30 (11745921_a_at) / RFU CMKLR1 (11741424_a_at) / Fold change /veh CMKLR1 (11741424_a_at) / RFU LOC101060620 /// MAPK8IP1 (11723275_at) / Fold change /veh LOC101060620 /// MAPK8IP1 (11723275_at) / RFU SPTSSB (11747773_x_at) / Fold change /veh SPTSSB (11747773_x_at) / RFU PRSS12 (11739890_at) / Fold change /veh PRSS12 (11739890_at) / RFU BIN1 (11741810_x_at) / Fold change /veh BIN1 (11741810_x_at) / RFU WNT11 (11732464_a_at) / Fold change /veh WNT11 (11732464_a_at) / RFU C10orf10 (11716521_a_at) / Fold change /veh C10orf10 (11716521_a_at) / RFU C5orf56 (11738089_at) / Fold change /veh C5orf56 (11738089_at) / RFU CYB561 (11721691_x_at) / Fold change /veh CYB561 (11721691_x_at) / RFU ANKRD19P (11752326_a_at) / Fold change /veh ANKRD19P (11752326_a_at) / RFU OR2T12 /// OR2T33 /// OR2T8 (11738714_s_at) / Fold change /veh OR2T12 /// OR2T33 /// OR2T8 (11738714_s_at) / RFU VCAN (11748164_a_at) / Fold change /veh VCAN (11748164_a_at) / RFU JSRP1 (11732532_at) / Fold change /veh JSRP1 (11732532_at) / RFU KRTAP10-11 (11738290_x_at) / Fold change /veh KRTAP10-11 (11738290_x_at) / RFU MYO3A (11730013_a_at) / Fold change /veh MYO3A (11730013_a_at) / RFU EBF3 (11725865_a_at) / Fold change /veh EBF3 (11725865_a_at) / RFU CAMK2N1 (11719241_x_at) / Fold change /veh CAMK2N1 (11719241_x_at) / RFU C5orf56 (11738088_a_at) / Fold change /veh C5orf56 (11738088_a_at) / RFU OLFML3 (11715873_a_at) / Fold change /veh OLFML3 (11715873_a_at) / RFU LOC100653217 /// NTM (11731650_a_at) / Fold change /veh LOC100653217 /// NTM (11731650_a_at) / RFU MAPK11 (11762145_a_at) / Fold change /veh MAPK11 (11762145_a_at) / RFU FIZ1 (11724087_x_at) / Fold change /veh FIZ1 (11724087_x_at) / RFU OASL (11726364_x_at) / Fold change /veh OASL (11726364_x_at) / RFU SOX15 (11748057_x_at) / Fold change /veh SOX15 (11748057_x_at) / RFU CD79A (11719716_a_at) / Fold change /veh CD79A (11719716_a_at) / RFU HIST1H1D (11736915_at) / Fold change /veh HIST1H1D (11736915_at) / RFU CASKIN2 (11723855_a_at) / Fold change /veh CASKIN2 (11723855_a_at) / RFU LOC730098 (11760151_x_at) / Fold change /veh LOC730098 (11760151_x_at) / RFU OR4N2 (11742367_at) / Fold change /veh OR4N2 (11742367_at) / RFU PRRT2 (11749266_a_at) / Fold change /veh PRRT2 (11749266_a_at) / RFU SNX32 (11753110_a_at) / Fold change /veh SNX32 (11753110_a_at) / RFU CDHR5 (11726645_a_at) / Fold change /veh CDHR5 (11726645_a_at) / RFU RCAN1 (11760418_a_at) / Fold change /veh RCAN1 (11760418_a_at) / RFU FAM167A (11723789_a_at) / Fold change /veh FAM167A (11723789_a_at) / RFU FAM26E (11764081_at) / Fold change /veh FAM26E (11764081_at) / RFU ISYNA1 (11749810_s_at) / Fold change /veh ISYNA1 (11749810_s_at) / RFU ACY1 (11761880_at) / Fold change /veh ACY1 (11761880_at) / RFU 11764098_at / Fold change /veh 11764098_at / RFU SAMD14 (11745864_x_at) / Fold change /veh SAMD14 (11745864_x_at) / RFU NPB (11741838_a_at) / Fold change /veh NPB (11741838_a_at) / RFU TMPRSS6 (11731388_a_at) / Fold change /veh TMPRSS6 (11731388_a_at) / RFU KRTAP10-2 (11738614_at) / Fold change /veh KRTAP10-2 (11738614_at) / RFU ARHGAP8 /// PRR5-ARHGAP8 (11727945_x_at) / Fold change /veh ARHGAP8 /// PRR5-ARHGAP8 (11727945_x_at) / RFU KRTAP5-7 /// NADSYN1 (11734609_at) / Fold change /veh KRTAP5-7 /// NADSYN1 (11734609_at) / RFU RASL12 (11751679_a_at) / Fold change /veh RASL12 (11751679_a_at) / RFU CDKN2B (11736163_a_at) / Fold change /veh CDKN2B (11736163_a_at) / RFU PRF1 (11729649_at) / Fold change /veh PRF1 (11729649_at) / RFU, ZNF638 /// ZNF638-IT1 / Fold change vs veh, ZNF638 /// ZNF638-IT1 / RFU, PANK3 / Fold change vs veh, PANK3 / RFU, SH3YL1 / Fold change vs veh, SH3YL1 / RFU, ZEB2 / Fold change vs veh, ZEB2 / RFU, NRIP1 / Fold change vs veh, NRIP1 / RFU, PTTG1IP / Fold change vs veh, PTTG1IP / RFU, CAPN2 / Fold change vs veh, CAPN2 / RFU, MED14 / Fold change vs veh, MED14 / RFU, SNORA58 / Fold change vs veh, SNORA58 / RFU, C1orf63 / Fold change vs veh, C1orf63 / RFU, LRRFIP1 / Fold change vs veh, LRRFIP1 / RFU, NDUFAF7 / Fold change vs veh, NDUFAF7 / RFU, SLC12A2 / Fold change vs veh, SLC12A2 / RFU, IBTK / Fold change vs veh, IBTK / RFU, ESF1 / Fold change vs veh, ESF1 / Fold change vs veh, TMEM50B / RFU, TAOK1 / Fold change vs veh, TAOK1 / RFU, ACBD3 / Fold change vs veh, ACBD3 / RFU, TMA16 / Fold change vs veh, TMA16 / RFU, RWDD3 / Fold change vs veh, RWDD3 / RFU, BCAT1 / Fold change vs veh, BCAT1 / RFU, EDEM3 / Fold change vs veh, EDEM3 / RFU, TMEM33 / Fold change vs veh, TMEM33 / RFU, WDR75 / Fold change vs veh, WDR75 / RFU, AHCTF1 / Fold change vs veh, AHCTF1 / RFU, TFRC / Fold change vs veh, TFRC / RFU, ZDHHC17 / Fold change vs veh, ZDHHC17 / RFU, NOM1 / Fold change vs veh, NOM1 / RFU, ARL8B / Fold change vs veh, ARL8B / RFU, ZBTB11 / Fold change vs veh, ZBTB11 / RFU, TAMM41 / Fold change vs veh, TAMM41 / RFU, KIAA1704 /// LOC100996395 / Fold change vs veh, KIAA1704 /// LOC100996395 / RFU, ING1 / Fold change vs veh, ING1 / RFU, TRMT61B / Fold change vs veh, TRMT61B / RFU, FUBP3 / Fold change vs veh, FUBP3 / RFU, TP53 / Fold change vs veh, TP53 / RFU, TNKS2 / Fold change vs veh, TNKS2 / RFU, ZFP14 / Fold change vs veh, ZFP14 / RFU, ACTR2 / Fold change vs veh, ACTR2 / RFU, PPP3R1 / Fold change vs veh, PPP3R1 / RFU, PIK3R1 / Fold change vs veh, PIK3R1 / RFU, HNRNPA1 / Fold change vs veh, HNRNPA1 / RFU, RNF170 / Fold change vs veh, RNF170 / RFU, ZNF28 / Fold change vs veh, ZNF28 / RFU, RNGTT / Fold change vs veh, RNGTT / RFU, OGT / Fold change vs veh, OGT / RFU, BRD1 / Fold change vs veh, BRD1 / RFU, MARS / Fold change vs veh, MARS / RFU, ZNF655 / Fold change vs veh, ZNF655 / RFU, FAHD1 / Fold change vs veh, FAHD1 / RFU, BDP1 / Fold change vs veh, BDP1 / RFU, LRRCC1 / Fold change vs veh, LRRCC1 / RFU, ARID1A / Fold change vs veh, ARID1A / RFU, ZNF146 / Fold change vs veh, ZNF146 / RFU, ZNF330 / Fold change vs veh, ZNF330 / RFU, GPN3 / Fold change vs veh, GPN3 / RFU, C9orf123 / Fold change vs veh, C9orf123 / RFU, N4BP2L2 / Fold change vs veh, N4BP2L2 / RFU, ARFIP1 / Fold change vs veh, ARFIP1 / RFU, FAM179B / Fold change vs veh, FAM179B / RFU, BCL10 / Fold change vs veh, BCL10 / RFU, UHRF1BP1L / Fold change vs veh, UHRF1BP1L / RFU, BET1 / Fold change vs veh, BET1 / RFU, CNOT2 / Fold change vs veh, CNOT2 / RFU, ZNF268 / Fold change vs veh, ZNF268 / Fold change vs veh, ZNF507 / RFU, DGCR2 / Fold change vs veh, DGCR2 / RFU, WDSUB1 / Fold change vs veh, WDSUB1 / Fold change vs veh, HSP90B1 /// MIR3652 / RFU, ADSS / Fold change vs veh, ADSS / RFU, GK / Fold change vs veh, GK / RFU, ZNF148 / Fold change vs veh, ZNF148 / RFU, TAF9 / Fold change vs veh, TAF9 / RFU, SLC1A5 / Fold change vs veh, SLC1A5 / RFU, SLMO2 / Fold change vs veh, SLMO2 / RFU, ABCC4 / Fold change vs veh, ABCC4 / RFU, LOC101060439 /// RAP1B / Fold change vs veh, LOC101060439 /// RAP1B / RFU, RFX7 / Fold change vs veh, RFX7 / RFU, GTPBP10 / Fold change vs veh, GTPBP10 / RFU, CNEP1R1 / Fold change vs veh, CNEP1R1 / RFU, BIVM-ERCC5 /// ERCC5 / Fold change vs veh, BIVM-ERCC5 /// ERCC5 / RFU, ILF3 / Fold change vs veh, ILF3 / RFU 11762660_at / Fold change /veh 11762660_at / RFU VCAN (11757783_s_at) / Fold change /veh VCAN (11757783_s_at) / RFU DDX43 (11728927_at) / Fold change /veh DDX43 (11728927_at) / RFU KRT8 (11758188_x_at) / Fold change /veh KRT8 (11758188_x_at) / RFU NKD1 (11759106_at) / Fold change /veh NKD1 (11759106_at) / RFU SRD5A1 (11742802_a_at) / Fold change /veh SRD5A1 (11742802_a_at) / RFU TPSAB1 /// TPSB2 (11721975_s_at) / Fold change /veh TPSAB1 /// TPSB2 (11721975_s_at) / RFU GSTM3 (11746129_a_at) / Fold change /veh GSTM3 (11746129_a_at) / RFU IL23R (11737362_x_at) / Fold change /veh IL23R (11737362_x_at) / RFU TMEM51 (11727254_a_at) / Fold change /veh TMEM51 (11727254_a_at) / RFU PIWIL2 (11732686_x_at) / Fold change /veh PIWIL2 (11732686_x_at) / RFU ORM1 (11744905_x_at) / Fold change /veh ORM1 (11744905_x_at) / RFU CCDC152 (11743942_at) / Fold change /veh CCDC152 (11743942_at) / RFU ECM1 (11717891_a_at) / Fold change /veh ECM1 (11717891_a_at) / RFU IL23R (11748794_a_at) / Fold change /veh IL23R (11748794_a_at) / RFU TNFAIP8L3 (11732012_x_at) / Fold change /veh TNFAIP8L3 (11732012_x_at) / RFU MBOAT4 (11741988_at) / Fold change /veh MBOAT4 (11741988_at) / RFU 11764193_at / Fold change /veh 11764193_at / RFU TMEM53 (11763286_at) / Fold change /veh TMEM53 (11763286_at) / RFU MAGEB2 (11727129_at) / Fold change /veh MAGEB2 (11727129_at) / RFU TMEM200A (11744735_a_at) / Fold change /veh TMEM200A (11744735_a_at) / RFU CCDC152 (11751479_a_at) / Fold change /veh CCDC152 (11751479_a_at) / RFU FAM211A (11726209_a_at) / Fold change /veh FAM211A (11726209_a_at) / RFU RGS16 (11746705_a_at) / Fold change /veh RGS16 (11746705_a_at) / RFU VCAN (11755009_s_at) / Fold change /veh VCAN (11755009_s_at) / RFU RHOB (11743442_s_at) / Fold change /veh RHOB (11743442_s_at) / RFU RGS16 (11720943_a_at) / Fold change /veh RGS16 (11720943_a_at) / RFU RGS16 (11720944_at) / Fold change /veh RGS16 (11720944_at) / RFU, VPS4B / Fold change vs veh, VPS4B / RFU, CREB1 / Fold change vs veh, CREB1 / RFU, DNAJC13 / Fold change vs veh, DNAJC13 / RFU, GNAQ / Fold change vs veh, GNAQ / RFU, CDK5R1 / Fold change vs veh, CDK5R1 / RFU, ZRANB3 / Fold change vs veh, ZRANB3 / RFU, CUL4A / Fold change vs veh, CUL4A / RFU, CCNY / Fold change vs veh, CCNY / RFU, UFL1 / Fold change vs veh, UFL1 / RFU, COG3 / Fold change vs veh, COG3 / RFU, DIAPH2 / Fold change vs veh, DIAPH2 / RFU, SKA2 / Fold change vs veh, SKA2 / RFU, AFF3 / Fold change vs veh, AFF3 / RFU, LMF1 / Fold change vs veh, LMF1 / RFU, IPO11 / Fold change vs veh, IPO11 / RFU, DFFB / Fold change vs veh, DFFB / RFU, FOXP1 / Fold change vs veh, FOXP1 / RFU, CARD8 / Fold change vs veh, CARD8 / RFU, STRN3 / Fold change vs veh, STRN3 / RFU, ADK / Fold change vs veh, ADK / RFU, RASSF2 / Fold change vs veh, RASSF2 / RFU, WIPF1 / Fold change vs veh, WIPF1 / RFU, LARP1B / Fold change vs veh, LARP1B / RFU, RASA1 / Fold change vs veh, RASA1 / RFU, RB1 / Fold change vs veh, RB1 / RFU, PPFIA1 / Fold change vs veh, PPFIA1 / RFU, MAT2A / Fold change vs veh, MAT2A / RFU, CCT5 / Fold change vs veh, CCT5 / RFU, WDR92 / Fold change vs veh, WDR92 / RFU, CUX1 / Fold change vs veh, CUX1 / RFU, TTC7A / Fold change vs veh, TTC7A / RFU, TMEM135 / Fold change vs veh, TMEM135 / RFU, DEPTOR / Fold change vs veh, DEPTOR / RFU, CPM / Fold change vs veh, CPM / RFU, DNAJB6 / Fold change vs veh, DNAJB6 / RFU, CACNA2D3 / Fold change vs veh, CACNA2D3 / RFU, DTX4 / Fold change vs veh, DTX4 / RFU, TFCP2 / Fold change vs veh, TFCP2 / RFU, GMCL1 /// GMCL1P1 / Fold change vs veh, GMCL1 /// GMCL1P1 / RFU, AEBP2 / Fold change vs veh, AEBP2 / RFU, SNHG1 /// SNORD22 /// SNORD25 /// SNORD26 /// SNORD27 /// SNORD28 /// SNORD29 /// SNORD31 / Fold change vs veh, SNHG1 /// SNORD22 /// SNORD25 /// SNORD26 /// SNORD27 /// SNORD28 /// SNORD29 /// SNORD31 / Fold change (Aza/veh), C12orf56 (ProbeSet 11735607_a_at) / Fold change (ACY-1035/veh), C12orf56 (ProbeSet 11735607_a_at) / Fold change (Aza/veh), FGFR1OP (ProbeSet 11751329_s_at) / Fold change (ACY-1035/veh), FGFR1OP (ProbeSet 11751329_s_at) / Fold change (Aza/veh), VPS36 (ProbeSet 11739960_a_at) / Fold change (ACY-1035/veh), VPS36 (ProbeSet 11739960_a_at) / RFU SYPL1 (11715823_x_at) / Fold change /veh SYPL1 (11715823_x_at) / RFU IGFBP7 (11715501_s_at) / Fold change /veh IGFBP7 (11715501_s_at) / RFU REEP3 (11722064_at) / Fold change /veh REEP3 (11722064_at) / RFU IGLL1 (11728026_x_at) / Fold change /veh IGLL1 (11728026_x_at): dose or concentration left out as unconfirmed
Conditions: MV-4-11 cells, 48 hours

Nc1ncn([C@@H]2O[C@H](CO)[C@@H](O)[C@H]2O)c(=O)n1 [azacitidine]
Fold change /veh KIR2DL2 /// KIR2DL4 /// KIR2DL5A /// KIR2DL5B /// KIR2DS1 /// KIR2DS2 /// KIR2DS3 /// KIR2DS4 /// KIR3DL3 /// KIR3DL3 /// KIR3DS1 (11738374_at): 0.92
